Results as given in patent publication US20260132384A1, “METHOD FOR REPROGRAMMING HUMAN SOMATIC CELLS INTO INDUCED PLURIPOTENT STEM CELLS” (EXONEUGLIA BIOTECHNOLOGY (SUZHOU) CO., LTD., priority 2023, published 2026).

Test system: peripheral blood mononuclear cells (PBMCs)
Test: Reprogramming of human peripheral blood cells into induced pluripotent stem cells; clones counted by alkaline phosphatase staining
Format: cell-based
Conditions: day 14, clones per 5.0×10^5 reprogrammed PBMCs, OCT4, SOX2, LIN28 episomal plasmids, inducers added to induction medium
Description: The inducing factors were introduced via electroporation of episomal plasmids in Treatment Groups 1 to 6. The groups differed only in the chemical inducer small molecules added to the pluripotent stem cell induction medium. The specific steps were as follows:
(2) Expansion of Peripheral Blood Cells: Freshly isolated peripheral blood cells (peripheral blood cells obtained with ethical approval were purchased from Shanghai HYCELLs Company) were seeded into a 6-well plate at a density of 5×10^6 cells/mL and cultured statically for 7 days at 37° C. in an incubator. The peripheral blood cell expansion medium used was StemPro™-34 medium supplemented with SCF 100 ng/ml, FLT-3 100 ng/ml, IL-3 20 ng/ml, IL-6 20 ng/ml, and TPO 100 ng/mL.
(3) Electroporation: Prior to electroporation, 500 μL of diluted basement membrane matrix (Matrigel) was added to a […] and placed in a CO2 incubator for coating. The expanded cells were collected and washed. After counting, the peripheral blood mononuclear cells (PBMCs) were placed in a 1.5 mL centrifuge tube at a density of 2×10^6 cells/mL. The tube was loaded into a centrifuge and centrifuged at 200 g for 5 minutes. After centrifugation, the supernatant was aspirated with a pipette and set aside for later use.
According to the Thermo Neon electroporation instrument protocols, buffer was added. The cell pellet was mixed with 5 μg of pCEP4-OCT4-IRES-SOX2 plasmid and 2 μg of pCEP4-Lin28 plasmid, and the mixture was loaded into the electroporation instrument for electroporation. Peripheral blood expansion medium was immediately added thereafter, and the cells were seeded in the coated 6-well plate at a density of 5×10^5 cells/mL and cultured statically for 48 h at 37° C. in a CO2 incubator.
(4) Induction: At 48 h post-electroporation, 1 mL of pluripotent stem cell induction medium was directly added to the original wells, and the culture was continued statically for 48 h at 37° C. in a CO2 incubator; On day 4 post-electroporation, half of the old medium in the original wells was aspirated and discarded, 1 mL of fresh pluripotent stem cell induction medium was then added, and the culture was continued statically for 48 h at 37° C. in a CO2 incubator; On day 6 post-electroporation, all the old medium in the original wells was aspirated and discarded, 1 mL of fresh pluripotent stem cell induction medium was added, and the culture was continued statically for 48 h at 37° C. in a CO2 incubator; On day 8 post-electroporation, all the old medium in the original wells was aspirated and discarded, 1 mL of fresh pluripotent stem cell induction medium was added, and the culture was continued statically for 48 h at 37° C. in a CO2 incubator; On day 10 post-electroporation, all the old medium in the original wells was aspirated and discarded, 1 mL of fresh mTeSR1 medium was added, and the culture was continued statically at 37° C. in a CO2 incubator; The mTeSR1 medium was changed daily until the induced pluripotent stem cells were fully mature, approximately on day 14 or 15 post-electroporation. Clones were then picked for expansion.
The pluripotent stem cell induction medium for Treatment Group 1 was mTeSR1 medium supplemented with 3 μM chir99021, 100 ng/ml FGF2, 250 μM NaB, 2 μM SB203580, 1 μM peficitinib, 1 μM FPFT-2216, 0.1 μM VTP50469, 2% (v/v) B27, and 1% (v/v)N-2.
The pluripotent stem cell induction medium for Treatment Group 2 was mTeSR1 medium supplemented with 3 μM chir99021, 100 ng/ml FGF2, 250 μM NaB. 1 μM peficitinib, 2% (v/v) B27, and 1% (v/v)N-2.
The pluripotent stem cell induction medium for Treatment Group 3 was mTeSR1 medium supplemented with 3 μM chir99021, 100 ng/ml FGF2, 250 μM NaB, 2 μM Tofacitinib, 2% (v/v) B27, and 1% (v/v)N-2.
The pluripotent stem cell induction medium for Treatment Group 4 was mTeSR1 medium supplemented with 3 μM chir99021, 100 ng/ml FGF2, 250 μM NaB, 2 μM SB203580, 2% (v/v) B27, and 1% (v/v)N-2. […]

| Structure (SMILES) | Average Number of Pluripotent Stem Cell Clone/Well, Experiment 1 [Clone/Well] | Average Number of Pluripotent Stem Cell Clone/Well, Experiment 2 [Clone/Well] | Average Number of Pluripotent Stem Cell Clone/Well, Experiment 3 [Clone/Well] |
| --- | --- | --- | --- |
| NC(=O)c1cnc2[nH]ccc2c1N[C@@H]1[C@@H]2CC3C[C@H]1C[C@@](O)(C3)C2 [Peficitinib] | 43 | 52 | 47 |
| C[C@@H]1CCN(C(=O)CC#N)C[C@@H]1N(C)c1ncnc2[nH]ccc12 [Tofacitinib] | 20 | 16 | 22 |
| C[S+]([O-])c1ccc(-c2nc(-c3ccncc3)c(-c3ccc(F)cc3)[nH]2)cc1 (stereo not drawn) [SB203580] | 51 | 56 | 48 |
